Assays:
Assay type in all cases: biochemical
[1] = target: T1, CUL5 (Homo sapiens, UniProt Q93034+Q9UBF6, Q93034:L407E/Q93034:L439K/Q93034:V440K); assay: in vitro CUL5 neddylation assay
T1 sequence (Q93034 401-780 L407E/L439K/V440K): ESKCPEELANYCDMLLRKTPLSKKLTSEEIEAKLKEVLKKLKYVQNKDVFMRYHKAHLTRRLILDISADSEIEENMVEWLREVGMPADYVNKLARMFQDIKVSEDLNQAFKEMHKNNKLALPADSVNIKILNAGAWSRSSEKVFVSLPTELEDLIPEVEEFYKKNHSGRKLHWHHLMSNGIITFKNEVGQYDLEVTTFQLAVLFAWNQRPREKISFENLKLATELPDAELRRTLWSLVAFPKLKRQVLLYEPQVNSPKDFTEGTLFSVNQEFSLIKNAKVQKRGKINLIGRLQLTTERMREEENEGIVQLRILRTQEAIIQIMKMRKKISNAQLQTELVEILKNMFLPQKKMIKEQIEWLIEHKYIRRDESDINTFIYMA
T1 sequence (Q9UBF6 2-113): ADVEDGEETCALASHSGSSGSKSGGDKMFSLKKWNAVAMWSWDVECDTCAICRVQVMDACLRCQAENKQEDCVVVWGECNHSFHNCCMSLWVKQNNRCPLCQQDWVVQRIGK

[2] = target: T2, SAG (Homo sapiens, UniProt Q93034+Q9UBF6, Q93034:L407E/Q93034:L439K/Q93034:V440K); assay: in vitro CUL5 neddylation assay
T2 sequence (Q9UBF6 2-113): T1 sequence (Q9UBF6 2-113)
T2 sequence (Q93034 401-780 L407E/L439K/V440K): T1 sequence (Q93034 401-780 L407E/L439K/V440K)

[3] = target: RBX1 (Homo sapiens, UniProt P62877+Q13616, Q13616:L421E/Q13616:V451E/Q13616:V452K/Q13616:Y455K); assay: in vitro CUL1 neddylation assay
Sequence of RBX1 (Q13616 411-776 L421E/V451E/V452K/Y455K): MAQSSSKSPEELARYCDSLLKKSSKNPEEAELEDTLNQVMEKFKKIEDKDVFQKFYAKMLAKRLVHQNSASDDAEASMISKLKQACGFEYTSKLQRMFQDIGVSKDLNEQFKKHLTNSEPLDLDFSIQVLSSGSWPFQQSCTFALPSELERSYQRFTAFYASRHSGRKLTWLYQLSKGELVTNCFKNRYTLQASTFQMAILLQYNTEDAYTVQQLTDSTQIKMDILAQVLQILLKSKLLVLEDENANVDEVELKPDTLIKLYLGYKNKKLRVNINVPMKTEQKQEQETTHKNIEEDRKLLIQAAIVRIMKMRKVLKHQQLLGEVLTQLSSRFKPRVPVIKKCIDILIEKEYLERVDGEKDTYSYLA
Sequence of RBX1 (P62877 whole entry): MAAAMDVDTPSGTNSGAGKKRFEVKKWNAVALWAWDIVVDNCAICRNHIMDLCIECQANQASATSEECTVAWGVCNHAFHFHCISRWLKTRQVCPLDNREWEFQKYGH

With `Cc1cc2c(C(C)C)c(O)c(O)c(C=O)c2c(O)c1-c1c(C)cc2c(C(C)C)c(O)c(O)c(C=O)c2c1O` [gossypol] the IC50 [1] was 4.25 µM, the IC50 [2] was 4.25 µM and the IC50 [3] was 3.4 µM.

— PMC7076571 (Neoplasia (New York, N.Y.), 2020)
